Values quoted from earlier work in patent US9555015B2, “Antimicrobial compositions and methods for their use” (Dermcare-Vet Pty Ltd, priority 2004, dated 2017).

How the values were obtained:
[1] = especially in concentrations as high as 2%, particularly when the tympanic membrane has been ruptured
[2] = 0.2% chlorhexidine, external ear, ruptured tympanic membranes
[3] = 0.02% chlorhexidine compositions, bladder instillation

Q: Which results are given for `[H]/N=C(\N/C(=N/[H])NCCCCCCNC(=N)NC(=N)Nc1ccc(Cl)cc1)Nc1ccc(Cl)cc1` [chlorhexidine]?
A: ototoxicity [1]: ototoxic; ototoxic effects [2]: no ototoxic effects; bladder adverse effect [3]: chemical cystitis resulting in haematuria
